Test results: paper PMC6114107, “Characterization and validation of Entamoeba histolytica pantothenate kinase as a novel anti-amebic drug target” (International Journal for Parasitology: Drugs and Drug …, 2018)
Read-outs that look alike come from different tables or passages of the source.

Key:
[1] = target: E. histolytica PanK (EhPanK) recombinant enzyme (Entamoeba histolytica, UniProt B1N2P3); test: biochemical
Protocol: We screened 244 compounds from the Kitasato Natural Products Library for inhibition of EhPanK activity. Initially, each compound was dissolved in 50% DMSO and water at a final concentration of 1 mg/mL. Enzymatic reactions were carried out on a black 384-well microtiter plate with a 20 μL reaction mixture composed of 19 μl enzyme mix (100 μM pantothenate, 100 μM ATP, 50 ng of EhPanK recombinant enzyme in kinase buffer (see above) and 1 μl of the individual compounds (final concentration 50 μg/mL or 25–200 μM) at 37 °C for 2 h. After the kinase reaction, ADP was measured using ADP Hunter™ Plus kinase assay kit as described previously. Inhibition values were measured in triplicate.
Fig. S8. Dose-response data of inhibitors against EhPanK inhibitors. IC50 values were determined by dose-response-inhibition using GraphPad Prism (GraphPad Software Inc., San Diego, USA). Data are shown in mean of three replicates.

[2] = system: MRC-5 cells (human fibroblast); test: Cytotoxicity against MRC-5 cells (WST-8, 48 h); type: cell-based; settings: MRC5, MRC-5, 48 h, mean ± SEM, read-out: IC50 Normal human cell (MRC-5)
Protocol: Human fibroblast cells, MRC-5, were cultured on 96-well flat bottom plates at a density of 1.5 × 10^4 cells/well with 100 μl of MEM medium (Life Technologie) containing 10% fetal bovine serum (Hana-nesco Bio, Tokyo, Japan) and 1% penicillin-streptomycin (Life Technologies). Cells were incubated at 37 °C with 5% CO2 for 48 h. Approximately 100 μl of MEM medium containing 5 μl of each compound dissolved in 50% DMSO in water were added to each well. After the plates were incubated for 48 h, approximately 10 μl of WST-8 (Dojindo, Kumamoto, Japan) was added to each well and the plate was incubated at 37 °C with 5% CO2 for 2 h. The absorbance was measured at 450 nm by spectrophotometer (SH-9000Lab, Corona Electric, Ibaraki, Japan). Growth of MRC-5 cells was measured in duplicate. Staurosporine (Kitasato Natural Products Library) was used as a positive (cytotoxic) control in a concentration range of 0.5 pM to 0.1 nM IC50 values were calculated as described previously.

[3] = system: E. histolytica trophozoite (HM-1:IMSS cl6); test: Anti-amebic activity, trophozoite viability (WST-1, 48 h); type: cell-based, Entamoeba histolytica; settings: HM-1:IMSS cl6 trophozoites, anaerobic, 35.5 °C, mean ± SEM
Protocol: Approximately 1 × 10^4 trophozoites of E. histolytica clonal strain HM-1:IMSS cl6 in 200 μl of BI-S-33 medium were dispensed into each well of a 96-well plate and incubated at 35.5 °C for 2 h. Medium was then removed and replaced with 200 μl of BI-S-33 medium that contained various concentrations of each compound. […] The plate was incubated under anaerobic conditions at 35.5 °C for 48 h. After the medium was removed, 100 μl of pre-warmed Opti-MEM I (Life Technologies, Grand Islands, NY, USA) containing one-tenth volume of WST-1 (Roche, Mannheim, Germany) was added. The viability of trophozoites was estimated by measuring absorbance at 450 nm by SpectraMax® Paradigm® (Molecular Devices, CA, USA). Metronidazole was used as positive control at final concentrations of 0.1–10 μM and 0.5% DMSO as negative control. Each assay was performed in triplicate. IC50 values were calculated by least squares curve fitting of the dose inhibition curves using GraphPad Prism (GraphPad Software Inc., San Diego, USA).

[4] = target: T1, E. histolytica pantothenate kinase (Entamoeba histolytica, UniProt B1N2P3); test: Phosphoryl donor specificity of EhPanK; type: biochemical; settings: donor 100 μM, 0.2 mM pantothenate, 10 mM MgCl2, 37 °C, pH 6; relative to ATP; ND = not detected
Description: EhPanK utilized various nucleoside triphosphates, ATP, CTP, GTP, UTP, dATP, and polyphosphates, as well as deoxynucleotides as phosphoryl donors, with ATP being the best phosphate donor (Table 2).

[5] = target: T1, E. histolytica pantothenate kinase; type: biochemical
recombinant EhPanK = test: Regulation of EhPanK by CoA, acetyl CoA and malonyl CoA (double-reciprocal plots); type: biochemical, Entamoeba histolytica; settings: inhibitor 0, 0.5, 2 mM; for Mechanism of inhibition with respect to ATP: various ATP, 0.2 mM pantothenate; for Mechanism of inhibition with respect to pantothenate: various pantothenate, 100 μM ATP
Description: PanK from other organisms was reported to be negatively regulated by allosteric inhibition with CoA, acetyl CoA, and malonyl CoA ([Calder et al., 1999]; [Takagi et al., 2010]; [Vallari et al., 1987]). […] The mechanisms of inhibition by acetyl CoA were not clear but seemed to be the mixed type with respect to ATP and pantothenate (Fig. 3).
Fig. 2 Effect of CoA, acetyl CoA, and malonyl CoA on the pantothenate kinase activities. Relative activities of EhPanK in the presence of various concentrations of inhibitors to those without inhibitors are shown. […] The assays were carried out three times independently, and the results are shown as means ± SEM of triplicates.
Fig. 3 Double-reciprocal plots of the recombinant EhPanK in the presence of CoA (A and B), malonyl CoA (C and D), or acetyl CoA (E and F). The enzymatic activities were determined with various concentrations of ATP and 0.2 mM pantothenate (A, C, and E) or various concentrations of pantothenate and 100 μM ATP (B, D, and F), in the presence of three concentrations of inhibitors (0, 0.5, and 2 mM). Data are shown in means ± SEM of triplicate analyses.

[6] = recombinant EhPanK, 100 μM pantothenate, 100 μM ATP, 37 °C, 2 h, mean ± SEM of three replicates, read-out: IC50 against EhPanK activity
[7] = cation 5 mM, 0.2 mM pantothenate, 37 °C, pH 6.0, relative to MgCl2, ND = not detected

Sequence of E. histolytica PanK (EhPanK) recombinant enzyme (B1N2P3 entry or part of it): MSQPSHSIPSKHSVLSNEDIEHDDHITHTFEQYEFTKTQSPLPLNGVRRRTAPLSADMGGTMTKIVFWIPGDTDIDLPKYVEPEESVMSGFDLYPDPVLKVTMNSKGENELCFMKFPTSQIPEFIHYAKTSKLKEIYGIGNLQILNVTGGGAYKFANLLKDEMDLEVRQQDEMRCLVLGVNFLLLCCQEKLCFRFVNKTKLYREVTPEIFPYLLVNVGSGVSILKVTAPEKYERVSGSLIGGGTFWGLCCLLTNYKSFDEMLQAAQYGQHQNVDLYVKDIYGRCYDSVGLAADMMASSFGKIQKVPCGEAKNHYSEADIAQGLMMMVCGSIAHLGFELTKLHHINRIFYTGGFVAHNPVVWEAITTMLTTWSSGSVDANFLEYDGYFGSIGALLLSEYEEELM
T1 sequence (B1N2P3 entry or part of it): as above

Compound | IC50 [1, 6] | IC50 [2] | IC50 ([3]; Entamoeba histolytica) | other results
CCC1OC(=O)CC(O)C(C)C(O[C@@H]2O[C@H](C)C[C@H](N(C)C)[C@H]2O)C(CC=O)CC(C)C(=O)/C=C/C2(C)OC2C1C (stereo partly shown) [Rosamycin] | 166 ± 2 µM | 34.4 ± 2.71 µM | 56.3 ± 11.7 µM | 
Nc1ncnc2c1ncn2[C@H]1C[C@H](O)[C@@H](COP(=O)(O)OP(=O)(O)OP(=O)(O)O)O1 [dATP] |  |  |  | Relative activity (phosphoryl donor) [4]: 19.3 ± 4.3%
[H]/N=C(/N)N[C@H]1[C@H](O)[C@@H](O)[C@H](O[C@@H]2O[C@@H](C)[C@](O)(C=O)[C@H]2O[C@@H]2O[C@@H](CO)[C@H](O)[C@@H](O)[C@@H]2NC)[C@@H](N/C(N)=N\[H])[C@@H]1O [Streptomycin] | 155 ± 10.1 µM | > 172 µM | 77.5 ± 1.52 µM | 
[Cl-].[Cl-].[Co+2] [CoCl2] |  |  |  | Relative activity (metal) ([5]; pH 6): 74.2 ± 6.1%
Nc1nc2c(ncn2[C@@H]2O[C@H](COP(=O)(O)OP(=O)(O)OP(=O)(O)O)[C@@H](O)[C@H]2O)c(=O)[nH]1 [GTP] |  |  |  | Relative activity (phosphoryl donor) [4]: 78.8 ± 4.9%
[Ca+2].[Cl-].[Cl-] [CaCl2] |  |  |  | Relative activity (metal) [5, 7]: 17.0 ± 3.0%
O=P(O)(O)OP(=O)(O)OP(=O)(O)O [Tripolyphosphate] |  |  |  | Relative activity (phosphoryl donor) [4]: 16.9 ± 0.8%
Cc1ncc([N+](=O)[O-])n1CCO [Metronidazole] |  | > 100 µM | 0.66 ± 0.05 µM | 
CC(=O)[C@H]1O[C@@H](Oc2ccc(/C=C(\C)C(=O)N[C@@H]3[C@H](O)[C@@H](O)[C@H]4OCO[C@H]4[C@@H]3O)cc2O)[C@@H](O)[C@@H]1O [Hygromycin A] | 194 ± 17.8 µM | > 196 µM | 142 ± 16.3 µM | 
[Cl][Cu][Cl] [CuCl2] |  |  |  | Relative activity (metal) [5, 7]: 84.3 ± 4.7%
CCCCC/C=C\CCC(=O)N[C@H]1[C@H](Oc2c3cc4cc2Oc2ccc(cc2Cl)[C@@H](O[C@@H]2O[C@H](CO)[C@@H](O)[C@H](O)[C@H]2NC(C)=O)[C@@H]2NC(=O)[C@H](NC(=O)[C@@H]4NC(=O)[C@H]4NC(=O)[C@@H](Cc5ccc(c(Cl)c5)O3)NC(=O)[C@H](N)c3ccc(O)c(c3)Oc3cc(O)cc4c3)c3ccc(O)c(c3)-c3c(O[C@H]4O[C@H](CO)[C@@H](O)[C@H](O)[C@@H]4O)cc(O)cc3[C@@H](C(=O)O)NC2=O)O[C@H](CO)[C@@H](O)[C@@H]1O [Teicoplanin] |  |  |  | IC50 ([1]; read-out: IC50 against EhPanK activity, recombinant EhPanK, 100 μM pantothenate, 100 μM ATP, 37 °C, 2 h, mean ± SEM of three replicates): 26.3 ± 2.6 µM
[Cl][Fe][Cl] [FeCl2] |  |  |  | Relative activity (metal) [5, 7]: 72.8 ± 1.7%
C[C@H]1O[C@H](O[C@H]2[C@H](O)[C@@H](O)[C@@H](O)[C@H](O)[C@@H]2O)[C@@H](N)C[C@@H]1NC(=N)C(=O)O [Kasugamycin] |  | 87.1 ± 7.22 µM | 66.2 ± 13.7 µM | IC50 [1]: 254 ± 4.7 µM
CC(C)(COP(=O)(O)OP(=O)(O)OC[C@H]1O[C@@H](n2cnc3c(N)ncnc32)[C@H](O)[C@@H]1OP(=O)(O)O)[C@@H](O)C(=O)NCCC(=O)NCCS [CoA, Coenzyme A] |  |  |  | Mechanism of inhibition with respect to ATP (recombinant EhPanK): competitive; Mechanism of inhibition with respect to pantothenate (recombinant EhPanK): uncompetitive
LiCl2 |  |  |  | Relative activity (metal) [5, 7]: 34.5 ± 1.8%
O=C1OC2(OC=C(c3ccccc3)C2=O)c2ccccc21 (stereo not shown) [Fluorescamine] |  | 288 ± 17.8 µM | 168 ± 20.1 µM | IC50 ([1]; read-out: IC50 against EhPanK activity): 346 ± 14.7 µM

Compound | IC50 [1, 6] | IC50 [2] | IC50 ([3]; Entamoeba histolytica) | other results
O=c1ccn([C@@H]2O[C@H](COP(=O)(O)OP(=O)(O)OP(=O)(O)O)[C@@H](O)[C@H]2O)c(=O)[nH]1 [UTP] |  |  |  | Relative activity (phosphoryl donor) [4]: 16.6 ± 1.2%
Cc1cn([C@H]2C[C@H](O)[C@@H](COP(=O)(O)OP(=O)(O)OP(=O)(O)O)O2)c(=O)[nH]c1=O [TTP] |  |  |  | Relative activity (phosphoryl donor) [4]: 5.4 ± 1.9%
[Cl-].[Cl-].[Zn+2] [ZnCl2] |  |  |  | Relative activity (metal) [5, 7]: 3.9 ± 0.7%
COc1cccc2c1C(=O)C1=C(C[C@@H](CC(=O)O)O[C@@H]1C)C2=O [O-methylnanaomycin A] | 284 ± 28.7 µM | 19 ± 0.49 µM |  | 
CC(=O)SCCNC(=O)CCNC(=O)[C@H](O)C(C)(C)COP(=O)(O)OP(=O)(O)OC[C@H]1O[C@@H](n2cnc3c(N)ncnc32)[C@H](O)[C@@H]1OP(=O)(O)O [acetyl CoA] |  |  |  | Mechanism of inhibition with respect to ATP (recombinant EhPanK): mixed type; Mechanism of inhibition with respect to pantothenate (recombinant EhPanK): mixed type
[Cl-].[Cl-].[Mg+2] [MgCl2] |  |  |  | Relative activity (metal) [5, 7]: 100.0 ± 0.0%
CC(/C=C/C(O)=C1/C(=O)CNC1=O)=C\C(C)C1OC2(C)OC(C(=O)C3OC32C)C1C (stereo not shown) [Tirandamycin A] | 229 ± 3.4 µM | 144 ± 3.8 µM | < 20 µM | IC50 [3]: 13.7 ± 4.85 µM
Nc1ccn([C@@H]2O[C@H](COP(=O)(O)OP(=O)(O)OP(=O)(O)O)[C@@H](O)[C@H]2O)c(=O)n1 [CTP] |  |  |  | Relative activity (phosphoryl donor) [4]: 1.4 ± 0.2%
NC[C@@H]1O[C@H](O[C@H]2[C@@H](O)[C@H](O[C@@H]3[C@@H](O)[C@H](N)C[C@H](N)[C@H]3O[C@H]3O[C@H](CN)[C@@H](O)[C@H](O)[C@H]3N)O[C@@H]2CO)[C@H](N)[C@@H](O)[C@@H]1O [Neomycin] | 147 ± 6.8 µM | > 163 µM | < 20 µM | IC50 [3]: 10.6 ± 1.12 µM
[Cl][Mn][Cl] [MnCl2] |  |  |  | Relative activity (metal) [5, 7]: 83.2 ± 2.0%
Nc1ncnc2c1ncn2[C@@H]1O[C@H](COP(=O)(O)OP(=O)(O)OP(=O)(O)O)[C@@H](O)[C@H]1O [ATP] |  |  |  | Relative activity (phosphoryl donor) [4]: 100.0 ± 4.1%
CS[C@H]1SC[C@H]2C(=O)N(C)[C@@H](C(C)C)C(=O)OC[C@@H](NC(=O)c3cnc4ccccc4n3)C(=O)N[C@@H](C)C(=O)N(C)[C@@H]1C(=O)N(C)[C@@H](C(C)C)C(=O)OC[C@@H](NC(=O)c1cnc3ccccc3n1)C(=O)N[C@@H](C)C(=O)N2C [Echinomycin] | 77.8 ± 4.4 µM | < 0.38 µM |  | 
Polyphosphate |  |  |  | Relative activity (phosphoryl donor) [4]: 16.2 ± 2.5%
O=C(Cc1cccs1)N[C@@H]1C(=O)N2C(C(=O)[O-])=C(C[n+]3ccccc3)CS[C@H]12 [Cephaloridine] | 230 ± 10.1 µM | 48.2 ± 3.61 µM | 246 ± 34.9 µM | 
CC(/C=C/C(=O)NO)=C\[C@@H](C)C(=O)c1ccc(N(C)C)cc1 [Trichostatin] | 310 ± 14.9 µM | 2.62 ± 0.49 µM |  | 
CC[C@H]1OC(=O)[C@H](C)[C@@H](O[C@H]2C[C@@](C)(OC)[C@@H](O)[C@H](C)O2)[C@H](C)[C@@H](O[C@@H]2O[C@H](C)C[C@H](N(C)C)[C@H]2O)[C@](C)(O)C[C@@H](C)C(=O)[C@H](C)[C@@H](O)[C@]1(C)O [Erythromycin A] | 131 ± 6 µM | > 136 µM | 156 ± 20.6 µM | 
